Among the data in US10266526B2, “Substituted 1,2,3-triazoles as SMYD inhibitors for treating cancer” (EPIZYME, INC., priority 2014, dated 2019) are IC50 values, retold here.

Chain of SMYD3 (Q9H7B4 whole entry): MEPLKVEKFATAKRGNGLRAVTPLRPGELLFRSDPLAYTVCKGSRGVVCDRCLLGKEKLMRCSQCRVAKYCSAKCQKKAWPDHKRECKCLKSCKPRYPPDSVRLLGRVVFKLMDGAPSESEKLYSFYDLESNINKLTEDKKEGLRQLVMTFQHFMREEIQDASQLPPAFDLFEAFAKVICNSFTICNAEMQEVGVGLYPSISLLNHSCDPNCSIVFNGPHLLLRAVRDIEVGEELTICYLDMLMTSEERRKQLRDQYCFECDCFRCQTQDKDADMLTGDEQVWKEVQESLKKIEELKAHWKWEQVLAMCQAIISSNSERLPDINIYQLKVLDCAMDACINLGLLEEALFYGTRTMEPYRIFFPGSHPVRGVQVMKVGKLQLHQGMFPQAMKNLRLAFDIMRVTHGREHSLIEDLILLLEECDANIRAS

The target of one assay is SMYD3 (Homo sapiens (Human), UniProt Q9H7B4). Put plainly: SMYD3 biochemical assay (SMYD3 enzyme assay on MEKK2 protein substrate, 3H-SAM scintillation proximity assay). The note with it: Table 1A; average of n = 1 to n = 50; read-out: SMYD3 Biochem IC50. In outline:
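Native full-length human SMYD3, expressed in E. coli, was preincubated with compound for 30 min at room temperature in 25 mM Tris-Cl pH 8.0, 1 mM TCEP, 0.005% BSG and 0.005% Tween 20. ³H-SAM plus GST-MEKK2 then started the reaction. It was stopped with unlabeled SAM (100 uM final), and methylated MEKK2 was read by SPA.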
Regarding `CC(NC(=O)c1nc2ccncc2s1)C1CCN(C(=O)[C@H](C)N)CC1` (stereo partly drawn) [compound 551, N-(1-(1-(L-alanyl)piperidin-4-yl)ethyl)thiazolo[5,4-c]pyridine-2-carboxamide], the IC50 is greater than 50 µM.
Same read-out and setting: then `Cn1cnc(C(=O)N[C@H]2CC[C@H](N)CC2)n1` [compound 544, N-((1r,4r)-4-aminocyclohexyl)-1-methyl-1H-1,2,4-triazole-3-carboxamide], with greater than 50 µM.

The same assay, now with this note: read-out: SMYD3 Biochem IC50.
Take `CC(=O)Nc1ccc(C(=O)N[C@H]2CC[C@H](N)CC2)nc1` [compound 444, 5-acetamido-N-((1r,4r)-4-aminocyclohexyl)picolinamide]: the half-maximal inhibitory concentration (IC50) was greater than 100 µM.
For the molecule `NCCC(=O)N[C@H]1CC[C@H](NC(=O)c2nc3ccccc3[nH]2)CC1` [compound 374, N-((1r,4r)-4-(3-aminopropanamido)cyclohexyl)-1H-benzo[d]imidazole-2-carboxamide], the IC50 worked out at 86.6 µM.
Take `Cn1c(C(=O)N[C@H]2CC[C@H](NC(=O)CCN)CC2)cc2ccccc21` [compound 245, N-((1r,4r)-4-(3-aminopropanamido)cyclohexyl)-1-methyl-1H-indole-2-carboxamide]: the IC50 is greater than 100 µM.
`Cc1cc(C(=O)NC(C)C2CCN(C(=O)[C@H](C)N)CC2)ccn1` (stereo partly drawn) [compound 392, N-(1-(1-(L-alanyl)piperidin-4-yl)ethyl)-2-methylisonicotinamide]: the IC50 is greater than 100 µM.
As to `N[C@H]1CC[C@H](NC(=O)c2nc3ccccc3[nH]2)CC1` [compound 336, N-((1r,4r)-4-aminocyclohexyl)-1H-benzo[d]imidazole-2-carboxamide], the IC50 is greater than 100 µM.
As to `NS(=O)(=O)c1ccc(C(=O)N[C@H]2CC[C@H](N)CC2)cc1` [compound 190, N-((1r,4r)-4-aminocyclohexyl)-4-sulfamoylbenzamide], the IC50 was greater than 100 µM.
Regarding `NCCC(=O)N[C@H]1CC[C@H](NC(=O)c2cncc(O)c2)CC1` [compound 514, N-((1r,4r)-4-(3-aminopropanamido)cyclohexyl)-5-hydroxynicotinamide], the 50% inhibitory concentration (IC50) is greater than 50 µM.
For the molecule `N[C@H]1CC[C@H](NC(=O)c2cc3cn[nH]c3cn2)CC1` [compound 497, N-((1r,4r)-4-aminocyclohexyl)-1H-pyrazolo[3,4-c]pyridine-5-carboxamide], the half-inhibitory concentration (IC50) was 35.7 µM.
Regarding `CC(NC(=O)c1ccnc(O)c1)C1CCN(C(=O)[C@H](C)N)CC1` (stereo partly drawn) [compound 250, N-(1-(1-(L-alanyl)piperidin-4-yl)ethyl)-2-hydroxyisonicotinamide], the IC50 was greater than 100 µM.
For `Nc1ccncc1C(=O)N[C@H]1CC[C@H](N)CC1` [compound 289, 4-amino-N-((1r,4r)-4-aminocyclohexyl)nicotinamide], the IC50 was greater than 100 µM.
For `CC(NC(=O)Cc1cncnc1)C1CCN(C(=O)[C@H](C)N)CC1` (stereo partly drawn) [compound 315, N-(1-(1-(L-alanyl)piperidin-4-yl)ethyl)-2-(pyrimidin-5-yl)acetamide], the IC50 is greater than 100 µM.
Same read-out and setting: then `NCCC(=O)N[C@H]1CC[C@H](NC(=O)c2cc(O)c3ccccc3n2)CC1` [compound 404, N-((1r,4r)-4-(3-aminopropanamido)cyclohexyl)-4-hydroxyquinoline-2-carboxamide], with greater than 100 µM; and `CC(NC(=O)c1ccc(-n2cnnc2)cc1)C1CCN(C(=O)[C@H](C)N)CC1` (stereo partly drawn) [compound 226, N-(1-(1-(L-alanyl)piperidin-4-yl)ethyl)-4-(4H-1,2,4-triazol-4-yl)benzamide], with greater than 100 µM.
Regarding `NCCC(=O)NC1CCC(NC(=O)c2ccccn2)CC1` (centres unmarked) [compound 297, N-(4-(3-aminopropanamido)cyclohexyl)picolinamide], the half-inhibitory concentration (IC50) was 44.2 µM.
The same measure, in the same setting: then `COc1cnc(C(=O)N[C@H]2CC[C@H](NC(=O)CCN)CC2)cn1` [compound 383, N-((1r,4r)-4-(3-aminopropanamido)cyclohexyl)-5-methoxypyrazine-2-carboxamide], with greater than 100 µM.
For the molecule `NCCC(=O)N[C@H]1CC[C@H](NC(=O)c2cccc(N)n2)CC1` [compound 385, 6-amino-N-((1r,4r)-4-(3-aminopropanamido)cyclohexyl)picolinamide], the IC50 was greater than 100 µM.
With `CC(NC(=O)c1noc(C2CC2)n1)C1CCN(C(=O)[C@H](C)N)CC1` (stereo partly drawn) [compound 464, N-(1-(1-(L-alanyl)piperidin-4-yl)ethyl)-5-cyclopropyl-1,2,4-oxadiazole-3-carboxamide], the IC50 is 32.7 µM.
Take `NCCC(=O)N[C@H]1CC[C@H](NC(=O)c2cn(CC(N)=O)nn2)CC1` [compound 516, 1-(2-amino-2-oxoethyl)-N-((1r,4r)-4-(3-aminopropanamido)cyclohexyl)-1H-1,2,3-triazole-4-carboxamide]: the concentration for half-maximal inhibition (IC50) is greater than 50 µM.

Staying with this assay, now noted: read-out: SMYD3 Biochem IC50 (μM)*.
With `N[C@H]1CC[C@H](NC(=O)c2cncc(F)c2)CC1` [compound 159, N-((1r,4r)-4-aminocyclohexyl)-5-fluoronicotinamide], the half-maximal inhibitory concentration (IC50) was greater than 100 µM.
Take `CCn1nc(C)cc1C(=O)N[C@H]1CC[C@H](N)CC1` [compound 27, N-((1r,4r)-4-aminocyclohexyl)-1-ethyl-3-methyl-1H-pyrazole-5-carboxamide]: the IC50 was determined as 102 µM.
Take `CC(NC(=O)c1ccc2ncc(O)nc2c1)C1CCN(C(=O)[C@H](C)N)CC1` (stereo partly drawn) [compound 99, N-(1-(1-(L-alanyl)piperidin-4-yl)ethyl)-3-hydroxyquinoxaline-6-carboxamide]: the half-inhibitory concentration (IC50) is 35.7 µM.
Same read-out and setting: then `CC(NC(=O)c1ccc2[nH]c(=O)[nH]c2c1)C1CCN(C(=O)[C@H](C)N)CC1` (stereo partly drawn) [Cpd. No. 93, N-(1-(1-((S)-2-aminopropanoyl)piperidin-4-yl)ethyl)-2-oxo-2,3-dihydro-1H-benzo[d]imidazole-5-carboxamide], with 6.76 µM; and `N[C@H]1CC[C@H](NC(=O)c2cccnc2)CC1` [compound 143, N-((1r,4r)-4-aminocyclohexyl)nicotinamide], with greater than 100 µM; and `NCCC(=O)N[C@H]1CC[C@H](NC(=O)c2ccc3c(c2)OCO3)CC1` [compound 147, N-((1r,4r)-4-(3-aminopropanamido)cyclohexyl)benzo[d][1,3]dioxole-5-carboxamide], with 98.2 µM.
Turning to `Cc1cc(C(=O)NC(c2ccccc2)C2CCNCC2)n(-c2ccccc2)n1` (centres unmarked) [compound 31, 3-methyl-1-phenyl-N-(phenyl(piperidin-4-yl)methyl)-1H-pyrazole-5-carboxamide], the IC50 is 56.7 µM.
As to `CCOC(=O)C(NC(=O)c1ccc2c(c1)CC(=O)N2)C1CCN(C(=O)[C@H](C)N)CC1` (stereo partly drawn) [compound 104, ethyl 2-(1-(L-alanyl)piperidin-4-yl)-2-(2-oxoindoline-5-carboxamido)acetate], the 50% inhibitory concentration (IC50) came out at 1.51 µM.
For the molecule `CCOC(=O)CCCC(=O)N[C@H]1CC[C@H](N)CC1` [compound 108, ethyl 5-(((1r,4r)-4-aminocyclohexyl)amino)-5-oxopentanoate], the half-inhibitory concentration (IC50) came to 92.2 µM.
For the molecule `CCc1cc(C(=O)N[C@H]2CC[C@H](N)CC2)on1` [compound 14, N-((1r,4r)-4-aminocyclohexyl)-3-ethylisoxazole-5-carboxamide], the half-maximal inhibitory concentration (IC50) was 104 µM.
In the case of `Cc1cc2[nH]c(C(=O)Nc3ccc(CN)cc3)cc2o1` [compound 81, N-(4-(aminomethyl)phenyl)-2-methyl-4H-furo[3,2-b]pyrrole-5-carboxamide], the IC50 stood at 25.9 µM.
Take `Nc1ccc(C(=O)N[C@H]2CC[C@H](N)CC2)cn1` [compound 123, 6-amino-N-((1r,4r)-4-aminocyclohexyl)nicotinamide]: the IC50 is 108 µM.

A word on the IC50: it is the concentration that inhibits the measured activity by half.
